Reference: patent US10683297B2 (Sunshine Lake Pharma Co., Ltd., priority 2017, dated 2020)

How the values were obtained:
[1] = target: T1, JAK1 (h) (Homo sapiens, UniProt P23458); assay: JAK1 (h) kinase assay; type: biochemical; settings: [γ-33P-ATP] 10 μM or KM values; 40 minutes at room temperature
T1 construct: purchased Millipore UK Ltd (assays performed there as a service)
Experimental: (§1) The above assay procedure can be used to determine the IC50 for inhibition and/or the inhibition constant, Ki. […] The IC50 value is estimated by preparing a 10 point curve using a ½ log dilution series (for example, a typical curve may be prepared using the following compound concentrations: 3 μM, 1 μM, 0.3 μM, 0.1 μM, 0.03 μM, 0.01 μM, 0.003 μM, 0.001 μM, 0.0003 μM and 0 μM).
(§2) JAK1 (h) is incubated with 20 mM Tris/HCl pH 7.5, 0.2 mM EDTA, 500 μM […], 10 mM MgAcetate and [γ-^33P-ATP] […] The reaction is initiated by the addition of the MgATP mix. After incubation for 40 minutes at room temperature, the reaction is stopped by the addition of 3% phosphoric acid solution. 10 μL of the reaction is then spotted onto a P30 filtermat and washed three times for 5 minutes in 75 mM phosphoric acid and once in methanol prior to drying and scintillation counting.
(§3) The kinase assays described herein were performed at Millipore UK Ltd, Dundee Technology Park, Dundee DD2 1SW, UK.

[2] = target: T2, JAK2 (h) (Homo sapiens, UniProt O60674); assay: JAK2 (h) kinase assay; type: biochemical; settings: [γ-33P-ATP] 10 μM or KM values; 40 minutes at room temperature
T2 construct: purchased Millipore UK Ltd (assays performed there as a service)
T2 sequence (O60674 whole entry): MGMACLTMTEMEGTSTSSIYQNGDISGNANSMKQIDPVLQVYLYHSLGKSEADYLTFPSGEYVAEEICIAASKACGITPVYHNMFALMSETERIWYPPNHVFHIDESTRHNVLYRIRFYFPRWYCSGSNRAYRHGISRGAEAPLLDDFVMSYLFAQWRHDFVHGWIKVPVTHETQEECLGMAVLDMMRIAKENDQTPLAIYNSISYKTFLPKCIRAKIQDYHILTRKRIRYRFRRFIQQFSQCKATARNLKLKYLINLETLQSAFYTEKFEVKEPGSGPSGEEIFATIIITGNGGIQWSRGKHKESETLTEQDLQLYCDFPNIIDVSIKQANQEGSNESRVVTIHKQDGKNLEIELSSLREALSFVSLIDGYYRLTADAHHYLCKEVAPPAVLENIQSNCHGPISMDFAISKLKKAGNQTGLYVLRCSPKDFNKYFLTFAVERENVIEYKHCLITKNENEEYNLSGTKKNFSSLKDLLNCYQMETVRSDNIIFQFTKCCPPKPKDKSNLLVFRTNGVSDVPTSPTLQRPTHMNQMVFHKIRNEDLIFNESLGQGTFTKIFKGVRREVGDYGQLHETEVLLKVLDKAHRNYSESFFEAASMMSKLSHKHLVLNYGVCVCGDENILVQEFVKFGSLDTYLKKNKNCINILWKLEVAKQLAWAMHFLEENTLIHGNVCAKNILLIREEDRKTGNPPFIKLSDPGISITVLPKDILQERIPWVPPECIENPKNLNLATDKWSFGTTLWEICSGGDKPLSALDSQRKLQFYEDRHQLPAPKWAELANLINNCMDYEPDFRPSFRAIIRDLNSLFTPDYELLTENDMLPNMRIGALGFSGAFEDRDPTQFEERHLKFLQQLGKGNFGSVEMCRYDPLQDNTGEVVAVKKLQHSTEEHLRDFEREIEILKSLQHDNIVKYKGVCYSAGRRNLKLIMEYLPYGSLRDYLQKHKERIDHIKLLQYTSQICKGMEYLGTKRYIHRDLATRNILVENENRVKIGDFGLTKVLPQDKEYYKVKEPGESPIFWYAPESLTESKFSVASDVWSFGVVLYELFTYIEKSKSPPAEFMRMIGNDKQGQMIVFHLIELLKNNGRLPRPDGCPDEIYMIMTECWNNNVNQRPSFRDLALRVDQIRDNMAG
Experimental: Kinase assays can be performed by measurement of incorporation of γ-^33P ATP into immobilized myelin basic protein (MBP). High binding white 384 well plates (Greiner) are coated with MBP (Sigma # M-1891) by incubation of 60 μL well of 20 μg/mL MBP in Tris-buffered saline (TBS; 50 mM Tris pH 8.0, 138 mM NaCl, 2.7 mM KCl) for 24 h at 4° C. Plates are washed 3× with 100 μL TBS. Kinase reactions are carried out in a total volume of 34 μL in kinase buffer (according to the need to make, for example, 5 mM Hepes pH 7.6, 15 mM NaCl, 0.01% bovine gamma globulin (Sigma #1-5506), 10 mM MgCl2, 1 mM DTT, 0.02% TritonX-100). Compound dilutions are performed in DMSO and added to assay wells to a final DMSO concentration of 1%. Each data point is measured in duplicate, and at least two duplicate assays are performed for each individual compound determination. Enzyme is added to final concentrations of 10 nM or 20 nM, for example. A mixture of unlabeled ATP and γ-^33P ATP is added to start the reaction (2×10^6 cpm of γ-^33P ATP per well (3000 Ci/mmole) and 10 μM unlabeled ATP, typically. The reactions are carried out for 1 hour at room temperature with shaking. Plates are washed 7× with TBS, followed by the addition of 50 μL well scintillation fluid (Wallac). Plates are read using a Wallac Trilux counter. This is only one format of such assays; various other formats are possible, as known to one skilled in the art.
as §1
as §2, with “JAK2 (h)” for “JAK1 (h)”, “with 8” for “with 20”, “mM MOPS” for “mM Tris/HCl”, “pH 7.0,” for “pH 7.5,”, “EDTA, 100” for “EDTA, 500”
as §3

[3] = target: T3, Aurora-A (h) (Homo sapiens, UniProt O14965); assay: Aurora-A (h) kinase assay; type: biochemical; settings: [γ-33P-ATP] 10 μM or KM values; 40 minutes at room temperature
T3 construct: purchased Millipore UK Ltd (assays performed there as a service)
T3 sequence (O14965 1-403): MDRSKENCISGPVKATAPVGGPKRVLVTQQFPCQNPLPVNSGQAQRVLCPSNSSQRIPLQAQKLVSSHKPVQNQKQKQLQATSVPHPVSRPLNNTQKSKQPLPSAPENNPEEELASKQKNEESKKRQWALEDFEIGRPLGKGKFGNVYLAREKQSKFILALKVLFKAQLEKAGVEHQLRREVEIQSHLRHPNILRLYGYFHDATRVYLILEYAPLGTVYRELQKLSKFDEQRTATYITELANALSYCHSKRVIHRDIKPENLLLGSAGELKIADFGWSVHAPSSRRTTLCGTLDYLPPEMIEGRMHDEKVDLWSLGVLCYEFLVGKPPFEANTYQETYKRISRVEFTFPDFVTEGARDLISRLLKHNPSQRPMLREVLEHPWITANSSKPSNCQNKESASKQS
Experimental: as §1
Aurora-A (h) is incubated with 8 mM MOPS pH 7.0, 0.2 mM EDTA, 200 μM LRRASLG (Kemptide), 10 mM MgAcetate and [γ-^33P-ATP] […] The reaction is initiated by the addition of the MgATP mix. After incubation for 40 minutes at room temperature, the reaction is stopped by the addition of 3% phosphoric acid solution. 10 μL of the reaction is then spotted onto a P30 filtermat and washed three times for 5 minutes in 75 mM phosphoric acid and once in methanol prior to drying and scintillation counting.
as §3

[4] = Compound stability in human liver microsomes; type: in vitro ADME; settings: for half-life at 5 μM: human liver microsomes 0.5 mg protein/mL, compound 5 μM, NADPH 1.0 mM, pH 7.4, 37° C., read-out: Human T1/2; for CLint scaled at 5 μM: liver microsomes, pH 7.4, in vivo CLint extrapolated from human liver microsome incubation
In short: (§4)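 Compounds (5 μM) incubated at 37 °C with human or rat liver microsomes (0.5 mg protein/mL) and 1.0 mM NADPH in 100 mM phosphate buffer pH 7.4, 0.05% DMSO, in duplicate. Sampled 0–60 min, quantified by LC/MS/MS as % of time zero; CLint extrapolated.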

[5] = Compound stability in rat liver microsomes; type: in vitro ADME; settings: for CLint scaled at 5 μM: liver microsomes, pH 7.4, in vivo CLint extrapolated from rat liver microsome incubation; for half-life at 5 μM: rat liver microsomes 0.5 mg protein/mL, compound 5 μM, NADPH 1.0 mM, pH 7.4, 37° C., read-out: Rat T1/2
In short: as §4

[6] = Pharmacokinetics after intravenous and oral administration in rats; type: in vivo; settings: for Clearance (CL) after iv dosing / AUC(0-t) / half-life / Vd: dose 1 mg/kg (Ex. 9: 0.6, Ex. 18: 0.5, Ex. 50: 0.96 mg/kg), iv dosing; for AUC(0-t) / half-life / Vd / bioavailability: rat, plasma; for Vd: read-out: Vss; for bioavailability: oral (generally 5 or 10 mg/kg) versus iv dosing, read-out: F (oral bioavailability)
In short: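 Rats dosed i.v. (about 0.5, 0.6, 1 or 2 mg/kg) or p.o. (5 or 10 mg/kg) as solution, suspension or capsule. Plasma sampled over 24 h and quantified by LC/MS/MS in MRM mode with ESI.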

T1 sequence (P23458 whole entry): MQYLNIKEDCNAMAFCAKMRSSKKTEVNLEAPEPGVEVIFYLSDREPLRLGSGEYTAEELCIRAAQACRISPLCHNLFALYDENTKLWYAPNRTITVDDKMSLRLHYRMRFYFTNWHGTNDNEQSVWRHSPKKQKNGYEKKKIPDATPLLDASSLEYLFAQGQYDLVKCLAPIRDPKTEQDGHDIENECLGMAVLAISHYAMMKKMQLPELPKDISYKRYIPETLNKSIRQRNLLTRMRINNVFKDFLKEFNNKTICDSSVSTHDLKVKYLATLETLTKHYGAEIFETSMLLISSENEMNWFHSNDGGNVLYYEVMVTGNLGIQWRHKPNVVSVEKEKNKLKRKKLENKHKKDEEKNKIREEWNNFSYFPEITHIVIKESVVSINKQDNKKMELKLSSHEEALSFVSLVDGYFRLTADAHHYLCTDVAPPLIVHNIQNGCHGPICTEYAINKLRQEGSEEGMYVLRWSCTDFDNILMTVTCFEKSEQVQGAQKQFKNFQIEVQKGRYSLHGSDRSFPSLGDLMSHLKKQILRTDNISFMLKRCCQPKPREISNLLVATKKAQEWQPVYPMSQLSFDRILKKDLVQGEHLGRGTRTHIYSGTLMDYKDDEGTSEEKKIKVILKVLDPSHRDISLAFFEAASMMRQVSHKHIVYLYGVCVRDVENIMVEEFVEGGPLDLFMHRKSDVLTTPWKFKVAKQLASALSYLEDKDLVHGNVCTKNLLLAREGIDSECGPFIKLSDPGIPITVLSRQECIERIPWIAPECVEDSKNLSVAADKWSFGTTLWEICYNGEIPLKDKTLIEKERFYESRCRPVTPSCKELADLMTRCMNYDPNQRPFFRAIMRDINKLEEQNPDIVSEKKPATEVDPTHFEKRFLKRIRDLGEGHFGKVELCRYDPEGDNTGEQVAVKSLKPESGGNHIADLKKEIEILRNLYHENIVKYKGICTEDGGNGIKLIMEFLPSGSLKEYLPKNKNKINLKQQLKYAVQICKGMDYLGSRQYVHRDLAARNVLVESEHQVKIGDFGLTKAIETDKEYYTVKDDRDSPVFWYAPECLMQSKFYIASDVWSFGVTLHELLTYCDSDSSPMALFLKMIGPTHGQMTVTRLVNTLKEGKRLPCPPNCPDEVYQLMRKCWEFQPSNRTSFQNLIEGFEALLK

| SMILES | IC50 [1] | IC50 [2] | IC50 [3] | half-life at 5 μM [4] | CLint scaled at 5 μM [4] | CLint scaled at 5 μM [5] | half-life at 5 μM [5] | Clearance (CL) after iv dosing [6] | AUC(0-t) [6] | half-life [6] | Vd [6] | bioavailability [6] |
| --- | --- | --- | --- | --- | --- | --- | --- | --- | --- | --- | --- | --- |
| Cc1cn2ccc(Nc3ncc(Cl)c(NC4CCN(c5ccc(C#N)nn5)CC4)n3)cc2n1 [Example 27, 6-(4-((5-chloro-2-((2-methylimidazo[1,2-a]pyridin-7-yl)amino)pyrimidin-4-yl)amino)piperidin-1-yl)pyridazine-3-carbonitrile] | < 0.3 nM | 10 nM | 467 nM | – | – | – | – | – | – | – | – | – |
| N#Cc1ccc(N2CCC(Nc3nc(Nc4ccn5cc(C(F)F)nc5c4)ncc3Cl)CC2)nn1 [Example 28, 6-(4-((5-chloro-2-((2-(difluoromethyl)imidazo[1,2-a]pyridin-7-yl)amino)pyrimidin-4-yl)amino)piperidin-1-yl)pyridazine-3-carbonitrile] | 0.5 nM | – | – | 41.5 min | 41.9 mL/min/kg | 164 mL/min/kg | 15.1 min | 14 mL/min/kg | 1220 ng·h/mL | 33.6 min | 0.56 L/kg | 56.1% |
| CC(C)(O)Cc1cn2ccc(Nc3ncc(Cl)c(NC4CCN(c5ccc(C#N)nn5)CC4)n3)cc2n1 [Example 38, 6-(4-((5-chloro-2-((2-(2-hydroxy-2-methylpropyl)imidazo[1,2-a]pyridin-7-yl)amino)pyrimidin-4-yl)amino)piperidin-1-yl)pyridazine-3-carbonitrile] | 0.9 nM | 41 nM | 440 nM | – | – | – | – | – | – | – | – | – |
| CC(C)(O)Cc1cnc2cc(Nc3ncc(Cl)c(NC4CCN(c5ccc(C#N)cn5)CC4)n3)ccn12 [Example 42, 6-(4-((5-chloro-2-((3-(2-hydroxy-2-methylpropyl)imidazo[1,2-a]pyridin-7-yl)amino)pyrimidin-4-yl)amino)piperidin-1-yl)nicotinonitrile] | < 0.3 nM | 23 nM | 1460 nM | – | – | – | – | – | – | – | – | – |
| CC(O)Cc1nc2cc(Nc3ncc(Cl)c(NC4CCN(c5ccc(C#N)cn5)CC4)n3)ccn2n1 (centres unmarked) [Example 57, 6-(4-((5-chloro-2-((2-(2-hydroxypropyl)-[1,2,4]triazolo[1,5-a]pyridin-7-yl)amino)pyrimidin-4-yl)amino)piperidin-1-yl)nicotinonitrile] | 0.9 nM | 5 nM | > 300 nM | – | – | – | – | – | – | – | – | – |
| COC(=O)Cc1nc2cc(Nc3ncc(Cl)c(NC4CCN(c5ccc(C#N)nn5)CC4)n3)ccn2n1 [Example 58, methyl 2-(7-((5-chloro-4-((1-(6-cyanopyridazin-3-yl)piperidin-4-yl)amino)pyrimidin-2-yl)amino)-[1,2,4]triazolo[1,5-a]pyridin-2-yl)acetate] | 0.8 nM | 27 nM | > 300 nM | – | – | – | – | – | – | – | – | – |
| CC(C)(O)c1cnc2cc(Nc3ncc(Cl)c(NC4CCN(c5ccc(C#N)nn5)CC4)n3)ccn12 [Example 66, 6-(4-((5-chloro-2-((3-(2-hydroxypropan-2-yl]imidazo[1,2-a]pyridin-7-yl)amino)pyrimidin-4-yl)amino)piperidin-1-yl)pyridazine-3-carbonitrile] | 0.3 nM | – | – | 25.6 min | 67.9 mL/min/kg | 68.5 mL/min/kg | 36.2 min | – | – | – | – | – |
| CC(C)(O)c1cn2ccc(Nc3ncc(Cl)c(NC4CCN(c5ccc(C#N)nn5)CC4)n3)cc2n1 [Example 71] | 0.9 nM | – | – | 18.9 min | 91.8 mL/min/kg | 438 mL/min/kg | 5.67 min | – | – | – | – | – |
| CC(C)(O)Cc1cnc2cc(Nc3ncc(Cl)c(NC4CCN(c5ccc(C#N)nn5)CC4)n3)ccn12 [Example 80, 6-(4-((5-chloro-2-((3-(2-hydroxy-2-methylpropyl)imidazo[1,2-a]pyridin-7-yl)amino)pyrimidin-4-yl)amino)piperidin-1-yl)pyridazine-3-carbonitrile] | 0.6 nM | – | – | 40.7 min | 42.7 mL/min/kg | 131 mL/min/kg | 19 min | – | – | – | – | – |
| CC(C)(O)c1nc2cc(Nc3ncc(Cl)c(NC4CCN(c5ccc(C#N)cc5)CC4)n3)ccn2n1 [Example 81, 4-(4-((5-chloro-2-((2-(2-hydroxypropan-2-yl)-[1,2,4]triazolo[1,5-a]pyridin-7-yl)amino)pyrimidin-4-yl)amino)piperidin-1-yl)benzonitrile] | < 0.3 nM | – | – | 419 min | 4.1 mL/min/kg | 25.5 mL/min/kg | 97.3 min | 162 mL/min/kg | 1710 ng·h/mL | 79.8 min | 0.946 L/kg | 99.6% |
